ChEMBL document CHEMBL1135841, “Use of parallel-synthesis combinatorial libraries for rapid identification of potent FKBP12 inhibitors” (Bioorg Med Chem Lett, 2002)

Biological target: Peptidyl-prolyl cis-trans isomerase FKBP1A (Homo sapiens, UniProt P62942)
Assay: Inhibition of peptidyl-prolyl isomerase (PPIase, or rotamase) activity of FK506 binding protein 12

Peptidyl-prolyl cis-trans isomerase FKBP1A, sequence (P62942 whole entry): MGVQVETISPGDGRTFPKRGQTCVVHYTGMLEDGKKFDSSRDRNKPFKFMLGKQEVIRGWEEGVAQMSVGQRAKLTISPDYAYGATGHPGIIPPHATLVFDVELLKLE

Row | SMILES | Ki
1 | O=C(OCCCc1ccc(Br)cc1)C1CCCCN1S(=O)(=O)Cc1ccccc1 (stereo not given) | 2700 nM
2 | COc1ccc(CCCOC(=O)C2CCCCN2S(=O)(=O)c2ccccc2)cc1 (stereo not given) | 260 nM
3 | O=C(OCc1ccccc1)[C@@H]1CCCN1C(=O)NC12C[C@H]3C[C@@H](C1)C[C@@H](C2)C3 | 2100 nM
4 | O=C(OCCCc1ccc(Cl)cc1)C1CCCCN1S(=O)(=O)Cc1ccccc1 (stereo not given) | 420 nM
5 | COc1cc(CCCOC(=O)C2CCCCN2S(=O)(=O)c2ccccc2)cc(OC)c1 (stereo not given) | 480 nM
6 | O=C(OCCCCc1ccccc1)[C@@H]1CCCN1C(=O)NC12C[C@H]3C[C@@H](C1)C[C@@H](C2)C3 | 470 nM
7 | O=C(OCCCc1ccc(F)cc1)C1CCCCN1S(=O)(=O)c1ccccc1 (stereo not given) | 740 nM
8 | C[C@@H](NC(=O)N1CCC[C@H]1C(=O)OCCCc1ccc(Br)cc1)c1ccccc1 | > 10000 nM
9 | Cc1ccc(S(=O)(=O)N2CCCCC2C(=O)OCCCc2ccc(Cl)cc2)cc1 (stereo not given) | 4400 nM
10 | COc1ccc(CCCOC(=O)C2CCCCN2C(=O)NC23CC4CC(CC(C4)C2)C3)cc1OC (stereo not given) | 32 nM
11 | O=C(OCCCc1ccc(F)cc1)[C@@H]1CCCN1C(=O)NC12C[C@H]3C[C@@H](C1)C[C@@H](C2)C3 | 1200 nM
12 | O=C(OCCCCc1ccccc1)[C@@H]1CCCN1C(=S)NC12C[C@H]3C[C@@H](C1)C[C@@H](C2)C3 | 7200 nM
13 | O=C(OCc1ccccc1)[C@@H]1CCCN1C(=S)NC12C[C@H]3C[C@@H](C1)C[C@@H](C2)C3 | 18000 nM
14 | O=C(OCCCc1ccccc1)[C@@H]1CCCN1C(=O)NC12C[C@H]3C[C@@H](C1)C[C@@H](C2)C3 | 1000 nM
15 | Cc1ccc(S(=O)(=O)N2CCCCC2C(=O)OCCCc2ccc(F)cc2)cc1 (stereo not given) | 1400 nM
16 | O=C(OCCCc1ccc(Cl)cc1)C1CCCCN1S(=O)(=O)c1ccccc1 (stereo not given) | 3800 nM
17 | O=C(OCCCc1ccc(F)cc1)C1CCCCN1S(=O)(=O)Cc1ccccc1 (stereo not given) | 320 nM
18 | C[C@@H](NC(=O)N1CCC[C@H]1C(=O)OCCCc1ccc(F)cc1)c1ccccc1 | 4400 nM
19 | O=C(OCCCc1ccc(Br)cc1)[C@@H]1CCCN1C(=O)NC12C[C@H]3C[C@@H](C1)C[C@@H](C2)C3 | 3100 nM
20 | O=C(OCCCc1ccc(F)cc1)[C@@H]1CCCN1/C(S)=N/C12C[C@H]3C[C@@H](C1)C[C@@H](C2)C3 | 850 nM

Row | SMILES | Ki
21 | O=C(OCCc1ccccc1)[C@@H]1CCCN1C(=S)NC12C[C@H]3C[C@@H](C1)C[C@@H](C2)C3 | 47000 nM
22 | COc1ccc(CCCOC(=O)C2CCCCN2S(=O)(=O)Cc2ccccc2)cc1OC (stereo not given) | 47 nM
23 | O=C(OCCCc1ccc(Cl)cc1)[C@@H]1CCCN1C(=S)NC12C[C@H]3C[C@@H](C1)C[C@@H](C2)C3 | 1500 nM
24 | COc1cc(CCCOC(=O)C2CCCCN2S(=O)(=O)c2ccc(C)cc2)cc(OC)c1 (stereo not given) | 400 nM
25 | C[C@@H](NC(=O)N1CCC[C@H]1C(=O)OCCCc1ccc(Cl)cc1)c1ccccc1 | 6000 nM
26 | COc1ccc(CCCOC(=O)[C@@H]2CCCN2S(=O)(=O)Cc2ccccc2)cc1 | 22 nM
27 | O=C(OCCc1ccccc1)[C@@H]1CCCN1C(=O)NC12C[C@H]3C[C@@H](C1)C[C@@H](C2)C3 | 1300 nM
28 | O=C(OCCCc1ccccc1)[C@@H]1CCCN1C(=O)Nc1ccccc1 | 820 nM
29 | O=C(OCCCc1ccccc1)[C@@H]1CCCN1C(=S)NC12C[C@H]3C[C@@H](C1)C[C@@H](C2)C3 | 5200 nM
30 | O=C(OCCCc1ccc(Cl)cc1)[C@@H]1CCCN1C(=O)NC12C[C@H]3C[C@@H](C1)C[C@@H](C2)C3 | 2300 nM
31 | O=C(OCCCc1ccc(Br)cc1)C1CCCCN1S(=O)(=O)c1ccccc1 (stereo not given) | 8000 nM
32 | COc1cc(CCCOC(=O)C2CCCCN2S(=O)(=O)Cc2ccccc2)cc(OC)c1 (stereo not given) | 120 nM
33 | COc1ccc(CCCOC(=O)C2CCCCN2C(=O)NC23CC4CC(CC(C4)C2)C3)c(OC)c1 (stereo not given) | 12 nM
34 | O=C(OCCc1ccccc1)[C@@H]1CCCN1C(=O)Nc1ccccc1 | 1300 nM
35 | COc1ccc(CCCOC(=O)C2CCCCN2S(=O)(=O)c2ccc(C)cc2)cc1 (stereo not given) | 220 nM
36 | O=C(OCCCc1ccc(Br)cc1)[C@@H]1CCCN1C(=S)NC12C[C@H]3C[C@@H](C1)C[C@@H](C2)C3 | 6300 nM
37 | O=C(OCc1ccccc1)[C@@H]1CCCN1C(=O)Nc1ccccc1 | 24000 nM
38 | COc1ccc(CCCOC(=O)C2CCCCN2S(=O)(=O)Cc2ccccc2)cc1 (stereo not given) | 92 nM
39 | COc1ccc(CCCOC(=O)C2CCCCN2S(=O)(=O)c2ccccc2)cc1OC (stereo not given) | 180 nM
40 | COc1ccc(CCCOC(=O)[C@@H]2CCCN2/C(S)=N/C2CCCCC2)cc1OC | 86 nM
